Data set [1] has as its system MCF-7 line (breast cancer). As to the kind of experiment: Sulphorhodamine B cytotoxicity test, MCF-7 line. The class given is cell-based. The following applies: for Cytotoxic activity class, MCF-7 line (breast cancer) / Cytotoxic activity, IC50, MCF-7 line (breast cancer) / IC50: 72 hours incubation, sulphorhodamine B. As for the experimental part:
(§1) Cytotoxic activity tests were performed using the following cancer cell lines: MCF-7 (breast cancer), HeLa (cervical cancer) A549 (pulmonary cancer) and KB (nasopharynx cancer) obtained from ECACC (European Collection of Cell Cultures). Cytotoxicity tests were carried out using a standard procedure with sulphorhodamine B. They involved incubation of the cancer cell lines in the logarithmic growth phase for 72 hours with the compound tested and, subsequently, spectrophotometric determination of the degree of cell growth inhibition using adsorption of a dye (sulphorhodamine B) which binds cellular proteins. The determination was carried out according to a procedure reported in: Vichai, V., Kirtikara, K. […] Solutions of the test compounds were prepared in DMSO in the following concentration range: 0.05; 0.1; 0.5; 1; 5; 10; 50; 100 μM. The cells of the lines tested were treated with the solutions of the test compounds in a laminar-flow chamber which ensured sterile working conditions according to the following procedure: the first three wells were used as a control: they contained 20 μL of DMSO only; successive solutions of the test compound were added to subsequent wells (20 μL), starting with the lowest concentration (three wells for each concentration level). Subsequently, the plates were placed in an incubator for 72 hours. After the end of incubation, the adhered cells were fixed by adding 500 μL of cold (4° C.) 50% trichloroacetic acid (TCA) and incubated at 4° C. for 1 hour. Subsequently, each well was rinsed with sterile water and dried. The operation was repeated five times. The fixed cells were stained for 30 minutes by adding 500 μL of 0.4% of a dye solution (sulphorhodamine B) dissolved in 1% acetic acid. […] Subsequently, the plates were dried in air for approx. 5 minutes. Any […] dye was dissolved by adding 1500 μL of […] Tris-base buffer (trishydroxymethylaminomethane) to each well and shaken using an orbital shaker for 5 minutes. […] Depending on the type of the cell line, the following growth media were used: • the MCF-7 line was grown in Dulbecco's Modified Eagle's Medium (DME) from Sigma (cat. no. […] R8758). […] Program Procedure. Instruction and technical documentation change notice, instruction 14. Screening data summary interpretation and outline of current screening. Edition NCI NIH, Bethesda Rev., 1980, 6, 31-62).

The test system of data set [2] is HeLa (cervical cancer). As to the kind of experiment: Sulphorhodamine B cytotoxicity test, HeLa line. The class given is cell-based. Particulars: for Cytotoxic activity class, HeLa (cervical cancer) / Cytotoxic activity, IC50, HeLa (cervical cancer) / IC50: 72 hours incubation, sulphorhodamine B. As for the experimental part: as §1
(Sulforhodamine B stains cellular protein and so reports cell mass.)

Data set [3] relates to A549 (lung cancer). As to the kind of experiment: Sulphorhodamine B cytotoxicity test, A549 line. Particulars: for Cytotoxic activity class, A549 (lung cancer) / Cytotoxic activity, IC50, A549 (lung cancer) / IC50: 72 hours incubation, sulphorhodamine B. The class given is cell-based. As to the method: as §1
In data set [4] the test system is KB (nasopharynx cancer). Briefly: Sulphorhodamine B cytotoxicity test, KB line. The class given is cell-based. Particulars: for Cytotoxic activity, IC50, KB (nasopharynx cancer) / IC50: 72 hours incubation, sulphorhodamine B. As to the method: Cytotoxic activity tests were performed using the following cancer cell lines: MCF-7 (breast cancer), HeLa (cervical cancer) A549 (pulmonary cancer) and KB (nasopharynx cancer) obtained from ECACC (European Collection of Cell Cultures).
Cytotoxicity tests were carried out using a standard procedure with sulphorhodamine B. They involved incubation of the cancer cell lines in the logarithmic growth phase for 72 hours with the compound tested and, subsequently, spectrophotometric determination of the degree of cell growth inhibition using adsorption of a dye (sulphorhodamine B) which binds cellular proteins. The determination was carried out according to a procedure reported in: Vichai, V., Kirtikara, K. Nature Protocols, 2006, 1, 1112.
Preparation of Cells for the Experiment:
Cancerous cells of the cell line tested in the logarithmic growth phase were seeded onto 24-well plates in a quantity of 20,000 cells/2 mL of the growth medium per well and, subsequently, incubated in an incubator at 37° C., in the 5% CO2 atmosphere for 24 hours.
Preparation of Test Compound Solutions:
Solutions of the test compounds were prepared in DMSO in the following concentration range: 0.05; 0.1; 0.5; 1; 5; 10; 50; 100 μM.
The cells of the lines tested were treated with the solutions of the test compounds in a laminar-flow chamber which ensured sterile working conditions according to the following procedure: the first three wells were used as a control: they contained 20 μL of DMSO only; successive solutions of the test compound were added to subsequent wells (20 μL), starting with the lowest concentration (three wells for each concentration level). Subsequently, the plates were placed in an incubator for 72 hours.
After the end of incubation, the adhered cells were fixed by adding 500 μL of cold (4° C.) 50% trichloroacetic acid (TCA) and incubated at 4° C. for 1 hour. Subsequently, each well was rinsed with sterile water and dried. The operation was repeated five times. The fixed cells were stained for 30 minutes by adding 500 μL of 0.4% of a dye solution (sulphorhodamine B) dissolved in 1% acetic acid. Any unbound dye was removed by decanting it from the plate, and the cells were washed 4 times with 1% acetic acid. Subsequently, the plates were dried in air for approx. 5 minutes. Any […] dye was dissolved by adding 1500 μL of […] Tris-base buffer (trishydroxymethylaminomethane) to each well and shaken using an orbital shaker for 5 minutes. Subsequently, 200 μL of solution from each well was transferred to each of two wells on a new 96-well plate and absorption of the solutions was determined spectrophotometrically at a wavelength of 490-530 nm using a plate reader.
Depending on the type of the cell line, the following growth media were used: • the MCF-7 line was grown in Dulbecco's Modified Eagle's Medium (DME) from Sigma (cat. no. D5796), • the HeLa, A549 and KB lines were grown in RPMI-1640 Medium from Sigma (cat. no. R8758).
IC50 values, denoting concentration of a compound needed to obtain 50% inhibition of cell growth, were determined for all the derivatives tested.

The subject of data set [5] is breast cancer cells (MCF-7). The following applies: in vitro; Martirosyan et al. 2004; read-out: IC50, inhibition of growth and differentiation of breast cancer cells (MCF-7); cited from earlier work.
Setting [6] is: average of three determinations.
[7] abbreviates: average of three determinations, read-out: Cytotoxic activity, IC50, MCF-7 line (breast cancer).
The mark [8] stands for this setting: average of three determinations, read-out: Cytotoxic activity, IC50, HeLa (cervical cancer).
[9] abbreviates: average of three determinations, read-out: Cytotoxic activity, IC50, A549 (lung cancer).
Where [10] appears, read: average of three determinations, read-out: Cytotoxic activity, IC50, KB (nasopharynx cancer).
Where [11] appears, read: read-out: Cytotoxic activity class, KB (nasopharynx cancer).
Where [12] appears, read: Homo sapiens, MCF7, average of three determinations, read-out: Cytotoxic activity, IC50, MCF-7 line (breast cancer).
The mark [13] stands for this setting: Homo sapiens, MCF7, read-out: Cytotoxic activity class, MCF-7 line (breast cancer).
Setting [14] is: Homo sapiens, HeLa, average of three determinations, read-out: Cytotoxic activity, IC50, HeLa (cervical cancer).
The mark [15] stands for this setting: Homo sapiens, HeLa, read-out: Cytotoxic activity class, HeLa (cervical cancer).
Setting [16] is: Homo sapiens, A549, average of three determinations, read-out: Cytotoxic activity, IC50, A549 (lung cancer).
The mark [17] stands for this setting: Homo sapiens, A549, read-out: Cytotoxic activity class, A549 (lung cancer).

Several values for one entry are separate records, joined by “and”; a condition that tells them apart may be missing. Equal entries are not always repeated. Where two headings read alike, the source gives them in different places. Bounds are passed on as bounds.

9-O-propargylcinchonidine [PCD]: in data set [1], the “Cytotoxic activity class, MCF-7 line (breast cancer)” value is “(MA) (IC50 range of 4-30 μg/mL are considered medium active (abbreviated as MA))”. Moreover, the “Cytotoxic activity, IC50, MCF-7 line (breast cancer)” value in data set [1] (setting [6]) worked out at 9.3 µg/mL. In addition, the IC50 is 28 µM in data set [1] (setting [7]); 30.1 µM in data set [2] (setting [8]); 48.1 µM in data set [3] (setting [9]); 28.6 µM in data set [4] (setting [10]); 4 to 30 µg/mL in data set [4] (setting [11]). For the same compound, the “reduction in cytotoxic activity on change to the opposite configuration (8S,9R)” value in data set [1] (PCD versus PCN, general statement, not tied to one cell line) is “about 3 fold”. Moreover, in data set [2], the “Cytotoxic activity class, HeLa (cervical cancer)” value is “(MA) (IC50 range of 4-30 μg/mL are considered medium active (abbreviated as MA))”. Moreover, in data set [2] (setting [6]), the “Cytotoxic activity, IC50, HeLa (cervical cancer)” value was found to be 10.0 µg/mL. For the same compound, the “Cytotoxic activity class, A549 (lung cancer)” value in data set [3] is recorded as “(MA) (IC50 range of 4-30 μg/mL are considered medium active (abbreviated as MA))”. Moreover, the “Cytotoxic activity, IC50, A549 (lung cancer)” value in data set [3] (setting [6]) came out at 16.0 µg/mL. Moreover, in data set [4] (setting [6]), the “Cytotoxic activity, IC50, KB (nasopharynx cancer)” value came to 9.5 µg/mL.
As to `O=c1[nH]c(=O)n([C@H]2C[C@H](O)[C@@H](CO)O2)cc1F` [5-fluoro-2′-deoxyuridine, reference compound], the IC50 in data set [1] (setting [12]) is 11.4 µg/mL and 46.3 µM; in data set [1] (setting [13]), 4 to 30 µg/mL; in data set [2] (setting [14]), 13 µg/mL and 52.8 µM; in data set [2] (setting [15]) it was 4 to 30 µg/mL; in data set [3] (setting [16]), 13.4 µg/mL and 54.4 µM; in data set [3] (setting [17]) it was 4 to 30 µg/mL. For the same compound, the IC50 in data set [4] (setting [10]) was 13.7 µg/mL and 55.6 µM; in data set [4] (setting [11]), 4 to 30 µg/mL.
As for `O=c1[nH]cc(F)c(=O)[nH]1` [5-fluorouracil, reference compound], the IC50 in data set [1] (setting [12]) was 18.2 µg/mL and 140 µM; in data set [1] (setting [13]), 4 to 30 µg/mL; in data set [2] (setting [14]) it was 21 µg/mL and 161 µM; in data set [2] (setting [15]), 4 to 30 µg/mL; in data set [3] (setting [16]) it was 21.4 µg/mL and 165 µM; in data set [3] (setting [17]), 4 to 30 µg/mL. For the same compound, the IC50 in data set [4] (setting [10]) is 22 µg/mL and 169 µM; in data set [4] (setting [11]) it was 4 to 30 µg/mL.
On to `C#CCO[C@@H](c1ccnc2ccccc12)[C@H]1C[C@@H]2CCN1C[C@@H]2C=C` [PCN, 9-O-propargylcinchonine], for which the “Cytotoxic activity class, MCF-7 line (breast cancer)” value in data set [1] is “(A) (IC50<4 μg/mL are generally assumed as active (abbreviated as A))”. For the same compound, the “Cytotoxic activity, IC50, MCF-7 line (breast cancer)” value in data set [1] (setting [6]) came out at 3.0 µg/mL. Besides, the IC50 in data set [1] (setting [7]) was 9.02 µM; in data set [2] (setting [8]) it was 10.5 µM; in data set [3] (setting [9]) it was 11.7 µM; in data set [4] (setting [10]) it was 9.63 µM; in data set [4] (setting [11]), less than 4 µg/mL. The “times as cytotoxic as 5FU” value in data set [1] (MCF-7 line, ratio of IC50 to 5FU) is “more than six times”; in data set [2] (HeLa line, ratio of IC50 to 5FU), “six times”; in data set [3] (A549 line, ratio of IC50 to 5FU) it was “more than five times”. In addition, the “times as active as 5FdU” value in data set [1] (MCF-7 line, ratio of IC50 to 5FdU) is reported as 3.8 times. In data set [2], the “Cytotoxic activity class, HeLa (cervical cancer)” value was “(A) (IC50<4 μg/mL are generally assumed as active (abbreviated as A))”. The “Cytotoxic activity, IC50, HeLa (cervical cancer)” value in data set [2] (setting [6]) was 3.5 µg/mL. The “times as cytotoxic as 5FdU” value in data set [2] (HeLa line, ratio of IC50 to 5FdU) is listed as 3.7 times; in data set [3] (A549 line, ratio of IC50 to 5FdU) it was “more than three times”. In data set [3], the “Cytotoxic activity class, A549 (lung cancer)” value was “(A) (IC50<4 μg/mL are generally assumed as active (abbreviated as A))”. Further, the “Cytotoxic activity, IC50, A549 (lung cancer)” value in data set [3] (setting [6]) came out at 3.9 µg/mL. The “Cytotoxic activity, IC50, KB (nasopharynx cancer)” value in data set [4] (setting [6]) worked out at 3.2 µg/mL. Besides, the “times as high activity compared to 5FU” value in data set [4] (KB line, ratio of IC50 to 5FU) is given as 6.8 times. For the same compound, the “times as high activity compared to 5FdU” value in data set [4] (KB line, ratio of IC50 to 5FdU) is recorded as 4.3 times.
For the compound `C=C[C@H]1C[N@@]2CC[C@H]1C[C@@H]2[C@@H](O)c1ccnc2ccccc12` [cinchonine, reference compound], the IC50 in data set [1] (setting [12]), in data set [2] (setting [14]), in data set [3] (setting [16]) and in data set [4] (setting [10]) was more than 50 µg/mL throughout.
As to `C=C[C@H]1C[N@@]2CC[C@H]1C[C@H]2[C@H](O)c1ccnc2ccc(OC)cc12` [quinine], the IC50 in data set [5] was 40 µM.

These data come from patent publication US20160022668A1, “APPLICATION OF CINCHONA ALKALOID DERIVATIVES AS CYTOTOXIC COMPOUNDS” (ADAM MICKIEWICZ UNIVERSITY, priority 2014, published 2016).
